# Publication PMC7961380, “A Systematic Study of the In Vitro Pharmacokinetics and Estimated Human In Vivo Clearance of Indole and Indazole-3-Carboxamide Synthetic Cannabinoid Receptor Agonists Detected on the Illicit Drug Market” (Molecules, 2021)
# Assays:
# [1] = Metabolic stability, pooled human liver microsome incubations; settings: for T1/2: pHLM 0.5 mg mL^−1, 0.5 µM, NADPH, 37 °C; for T1/2 / Microsomal Intrinsic Clearance, CLint micr: n ≥ 3 ± SD
# Protocol: Total incubation volume was 500 µL. Procedure: Test compound working solutions (50 µM in potassium phosphate buffer (pH 7.4)) were prepared (<1% DMSO). pHLM were thawed and diluted in potassium phosphate buffer (pH 7.4). […] Reactions were quenched in 200 µL ACN spiked with donepezil (IS, 50 ng mL^−1). […] Samples were analysed by UPLC-MS/MS in a 96 deep-well 2 mL plate. Each SCRA was incubated at least in triplicate but additional incubations were carried out across a number of analytical batches, giving greater replication and a greater understanding of system variability. Microsomal scaling factors used for human liver microsome incubations in the literature vary. Intrinsic clearance and predicted in vivo clearance rates calculated using alternative scaling factors found in the literature is provided in Section S6 of the supplementary information, to aid comparison of data between publications.
# Equations used for in vitro intrinsic clearance calculation and human in vivo clearance […]
# The equations used for in vitro intrinsic clearance calculation and human in vivo clearance estimation […]
# Microsomal clearance (HLM incubations) in mL min-1 mg microsomal protein-1 [3]
# Intrinsic clearance (whole-liver dimensions) (HLM incubations) in mL min-1 kg-1 [3] CL = k x V x [Liver](g) x SF Eqn. 7 […]
# mg g microsomal protein-1 [7]
# Intrinsic clearance (whole-liver dimensions) (HHep incubations) in mL min-1 kg-1 [4] CL = k x V x hepatocytes/g liver x [Liver](g) Eqn. 8 […]
# Where: hepatocytes/g liver = 107x10^6 cells/g liver
# Hepatic clearance in mL min-1 kg-1 [3]
# […] Eqn. 9
# Where: Q = hepatic blood flow, 21 mL min-1 kg-1 [9]; fu = fraction unbound (plasma); CLint = […]
# Estimated human hepatic extraction ratio [5]
# Intrinsic clearance data – pooled human liver microsome incubations […]
# table S4-28. Intrinsic clearance and predicted in vivo data calculated using alternative microsomal scaling factors found in the literature – 32 [10] and 45 [11] mg microsomal protein per gram liver – are provided in tables S29 and S30, respectively.
# [2] = system: pooled human cryopreserved hepatocytes (pHHeps); experiment: Metabolic stability, pooled human cryopreserved hepatocyte incubations; settings: for T1/2: pHHeps 0.25 million cells mL^−1, 0.5 µM, 37 °C, n ≥ 3 ± SD
# [3] = pHLM, alternative microsomal scaling factor 45 mg microsomal protein per gram liver
# [4] = pHHeps, alternative hepatocyte cell density 99x10^6 hepatocytes per gram liver
# [5] = pHLM, scaling factor 32 mg microsomal protein per gram liver
# [6] = pHLM, scaling factor 45 mg microsomal protein per gram liver
# [7] = pHHeps, 99x10^6 hepatocytes per gram liver
structure (smiles),measurement,setting,value
"CC(C)[C@@H](NC(=O)c1nn(Cc2ccc(F)cc2)c2ccccc12)C(N)=O [(R)-AB-FUBINACA (8), N-(1-amino-3-methyl-1-oxobutan-2-yl)-1-(4-fluorobenzyl)-1H-indazole-3-carboxamide]",T1/2,[1],145 ± 45 min
same,"% parent compound remaining, Average","[1]; pHLM, 3 min",89.5%
same,"% parent compound remaining, Average","[1]; pHLM, 6 min",90.5%
same,"% parent compound remaining, Average","[1]; pHLM, 9 min",88.4%
same,"% parent compound remaining, Average","[1]; pHLM, 15 min",82.9%
same,"% parent compound remaining, Average","[1]; pHLM, 30 min",83.9%
same,"Intrinsic clearance, CLint",[1]; [3],11.8 mL/min/kg
same,"Microsomal Intrinsic Clearance, CLint micr",[1]; pHLM,0.010 ± 0.003 mL min^−1 mg Microsomal Protein^−1
same,T1/2,[2],69 ± 11 min
same,"% parent compound remaining, Average","[2]; pHHeps, 3 min",96.7%
same,"% parent compound remaining, Average","[2]; pHHeps, 6 min",86.5%
same,"% parent compound remaining, Average","[2]; pHHeps, 9 min",84.9%
same,"% parent compound remaining, Average","[2]; pHHeps, 15 min",84.4%
same,"% parent compound remaining, Average","[2]; pHHeps, 30 min",75.2%
same,"% parent compound remaining, Average","[2]; pHHeps, 45 min",82.9%
same,"% parent compound remaining, Average","[2]; pHHeps, 60 min",78.8%
same,"Intrinsic clearance, CLint",[2]; [4],105 ± 14.6 mL/min/kg
"COC(=O)C(NC(=O)c1cn(CC2CCCCC2)c2ccccc12)C(C)C (stereo in doubt) [(R)-AMB-CHMICA (9), methyl [1-(cyclohexylmethyl)-1H-indole-3-carbonyl]valinate]","% parent compound remaining, Average","[1]; pHLM, 3 min",73.0%
same,"% parent compound remaining, Average","[1]; pHLM, 6 min",53.6%
same,"% parent compound remaining, Average","[1]; pHLM, 9 min",47.4%
same,"% parent compound remaining, Average","[1]; pHLM, 15 min",30.4%
same,"% parent compound remaining, Average","[1]; pHLM, 30 min",11.3%
same,"Microsomal Intrinsic Clearance, CLint micr",[1]; pHLM,0.167 ± 0.019 mL min^−1 mg Microsomal Protein^−1
same,"% parent compound remaining, Average","[2]; pHHeps, 3 min",62.7%
same,"% parent compound remaining, Average","[2]; pHHeps, 6 min",61.2%
same,"% parent compound remaining, Average","[2]; pHHeps, 9 min",45.1%
same,"% parent compound remaining, Average","[2]; pHHeps, 15 min",26.7%
same,"% parent compound remaining, Average","[2]; pHHeps, 30 min",11.8%
same,"% parent compound remaining, Average","[2]; pHHeps, 45 min",5.9%
same,"% parent compound remaining, Average","[2]; pHHeps, 60 min",3.2%
"COC(=O)C(NC(=O)c1nn(Cc2ccc(F)cc2)c2ccccc12)C(C)C (stereo in doubt) [(R)-AMB-FUBINACA (1), methyl [1-(4-fluorobenzyl)-1H-indazole-3-carbonyl]valinate]","% parent compound remaining, Average","[1]; pHLM, 3 min",57.2%
same,"% parent compound remaining, Average","[1]; pHLM, 6 min",46.7%
same,"% parent compound remaining, Average","[1]; pHLM, 9 min",34.5%
same,"% parent compound remaining, Average","[1]; pHLM, 15 min",20.5%
same,"% parent compound remaining, Average","[1]; pHLM, 30 min",6.8%
same,"Microsomal Intrinsic Clearance, CLint micr",[1]; pHLM,0.237 ± 0.020 mL min^−1 mg Microsomal Protein^−1
same,"% parent compound remaining, Average","[2]; pHHeps, 3 min",41.1%
same,"% parent compound remaining, Average","[2]; pHHeps, 6 min",22.5%
same,"% parent compound remaining, Average","[2]; pHHeps, 9 min",21.4%
same,"% parent compound remaining, Average","[2]; pHHeps, 15 min",12.3%
same,"% parent compound remaining, Average","[2]; pHHeps, 30 min",2.7%
same,"% parent compound remaining, Average","[2]; pHHeps, 45 min",0.9%
same,"% parent compound remaining, Average","[2]; pHHeps, 60 min",0.8%
"O=c1ccc2ccc(O)cc2o1 [7-hydroxycoumarin, reference compound]",intrinsic clearance rate,"[2]; pHHeps positive control, range over batches",46 to 238 min⁻¹ kg⁻¹
same,"% parent compound remaining, Average","[2]; pHHeps, 3 min",98.6%
same,"% parent compound remaining, Average","[2]; pHHeps, 6 min",97.5%
same,"% parent compound remaining, Average","[2]; pHHeps, 9 min",95.7%
same,"% parent compound remaining, Average","[2]; pHHeps, 15 min",90.8%
same,"% parent compound remaining, Average","[2]; pHHeps, 30 min",75.8%
same,"% parent compound remaining, Average","[2]; pHHeps, 45 min",67.2%
same,"% parent compound remaining, Average","[2]; pHHeps, 60 min",55.8%
CC(C)[C@@H](NC(=O)c1nn(CC2CCCCC2)c2ccccc12)C(N)=O [(R)-AB-[…] (11)] [N-[1-amino-3-methyl-1-oxobutan-2-yl]-1-(cyclohexylmethyl)-1H-indazole-3-carboxamide],T1/2,[1],43 ± 5.0 min
same,"% parent compound remaining, Average","[1]; pHLM, 3 min, […]",84.0%
same,"% parent compound remaining, Average","[1]; pHLM, 6 min, […]",84.4%
same,"% parent compound remaining, Average","[1]; pHLM, 9 min, […]",82.1%
same,"% parent compound remaining, Average","[1]; pHLM, 15 min, […]",73.6%
same,"% parent compound remaining, Average","[1]; pHLM, 30 min, […]",59.0%
same,"Intrinsic clearance, CLint","[1]; pHLM, alternative microsomal scaling factor 32 mg microsomal protein per gram liver",26.9 mL/min/kg
same,"Intrinsic clearance, CLint",[1]; [3],37.8 ± 4.19 mL/min/kg
same,"Microsomal Intrinsic Clearance, CLint micr",[1]; pHLM,0.033 ± 0.004 mL min^−1 mg Microsomal Protein^−1
same,T1/2,[2],38 ± 8.7 min
same,"% parent compound remaining, Average","[2]; pHHeps, 3 min, […]",91.3%
same,"% parent compound remaining, Average","[2]; pHHeps, 6 min, […]",89.8%
same,"% parent compound remaining, Average","[2]; pHHeps, 9 min, […]",88.6%
same,"% parent compound remaining, Average","[2]; pHHeps, 15 min, […]",86.6%
same,"% parent compound remaining, Average","[2]; pHHeps, 30 min, […]",73.0%
same,"% parent compound remaining, Average","[2]; pHHeps, 45 min, […]",75.2%
same,"% parent compound remaining, Average","[2]; pHHeps, 60 min, […]",76.2%
same,"Intrinsic clearance, CLint",[2]; [4],197 ± 50.3 mL/min/kg
"COC(=O)C(NC(=O)c1nn(CCCCCF)c2ccccc12)C(C)C (stereo in doubt) [(R)-5F-AMB-PINACA (10), methyl [1-(5-fluoropentyl)-1H-indazole-3-carbonyl]valinate]","% parent compound remaining, Average","[1]; pHLM, 3 min",64.1%
same,"% parent compound remaining, Average","[1]; pHLM, 6 min",51.0%
same,"% parent compound remaining, Average","[1]; pHLM, 9 min",38.0%
same,"% parent compound remaining, Average","[1]; pHLM, 15 min",21.7%
same,"% parent compound remaining, Average","[1]; pHLM, 30 min",6.8%
same,"Microsomal Intrinsic Clearance, CLint micr",[1]; pHLM,0.213 ± 0.014 mL min^−1 mg Microsomal Protein^−1
same,"% parent compound remaining, Average","[2]; pHHeps, 3 min",69.9%
same,"% parent compound remaining, Average","[2]; pHHeps, 6 min",35.6%
same,"% parent compound remaining, Average","[2]; pHHeps, 9 min",28.2%
same,"% parent compound remaining, Average","[2]; pHHeps, 15 min",12.1%
same,"% parent compound remaining, Average","[2]; pHHeps, 30 min",3.1%
same,"% parent compound remaining, Average","[2]; pHHeps, 45 min",0.9%
same,"% parent compound remaining, Average","[2]; pHHeps, 60 min",0.2%
"CCOc1ccc2ccc(=O)oc2c1 [7-ethoxycoumarin, reference compound]","% parent compound remaining, Average","[2]; pHHeps, 3 min",91.4%
same,"% parent compound remaining, Average","[2]; pHHeps, 6 min",89.4%
same,"% parent compound remaining, Average","[2]; pHHeps, 9 min",80.0%
same,"% parent compound remaining, Average","[2]; pHHeps, 15 min",73.7%
same,"% parent compound remaining, Average","[2]; pHHeps, 30 min",54.9%
same,"% parent compound remaining, Average","[2]; pHHeps, 45 min",40.7%
same,"% parent compound remaining, Average","[2]; pHHeps, 60 min",29.0%
same,"Intrinsic clearance, CLint","[2]; pHHeps, scaled to whole liver, 107x10^6 cells/g liver",55 to 305 mL/min/kg
CC(C)[C@H](NC(=O)c1nn(CC2CCCCC2)c2ccccc12)C(N)=O [(S)-AB-[…] (11)] [N-[1-amino-3-methyl-1-oxobutan-2-yl]-1-(cyclohexylmethyl)-1H-indazole-3-carboxamide],"Predicted In Vivo Hepatic Clearance, CLH","[1]; from pHLM CLint, well-stirred model with plasma fu, Q 21 mL min^−1 kg^−1",1.77 ± 0.17 mL/min/kg
same,"Hepatic extraction ratio, EH",[1]; from pHLM incubations,0.08 ± 0.008
same,"% parent compound remaining, Average","[1]; pHLM, 3 min, […]",76.2%
same,"% parent compound remaining, Average","[1]; pHLM, 6 min, […]",76.7%
same,"% parent compound remaining, Average","[1]; pHLM, 9 min, […]",70.6%
same,"% parent compound remaining, Average","[1]; pHLM, 15 min, […]",61.7%
same,"% parent compound remaining, Average","[1]; pHLM, 30 min, […]",45.8%
same,"Microsomal Intrinsic Clearance, CLint micr",[1]; pHLM,0.051 ± 0.005 mL min^−1 mg Microsomal Protein^−1
same,"Hepatic extraction ratio, EH",[1]; [5],0.05 ± 0.005
same,"Predicted in vivo hepatic clearance, CLH",[1]; [5],1.12 ± 0.11 mL/min/kg
same,"Hepatic extraction ratio, EH",[1]; [6],0.08 ± 0.007
same,"Predicted in vivo hepatic clearance, CLH",[1]; [6],1.54 ± 0.15 mL/min/kg
same,"Predicted In Vivo Hepatic Clearance, CLH","[2]; from pHHeps CLint, well-stirred model with plasma fu, Q 21 mL min^−1 kg^−1",4.52 ± 1.12 mL/min/kg
same,"Hepatic extraction ratio, EH",[2]; from pHHeps incubations,0.22 ± 0.053
same,"Hepatic extraction ratio, EH",[2]; [7],0.20 ± 0.051
same,"Predicted in vivo hepatic clearance, CLH",[2]; [7],4.26 ± 1.08 mL/min/kg
same,"% parent compound remaining, Average","[2]; pHHeps, 3 min, […]",96.9%
same,"% parent compound remaining, Average","[2]; pHHeps, 6 min, […]",85.7%
same,"% parent compound remaining, Average","[2]; pHHeps, 9 min, […]",81.8%
same,"% parent compound remaining, Average","[2]; pHHeps, 15 min, […]",88.6%
same,"% parent compound remaining, Average","[2]; pHHeps, 30 min, […]",65.5%
same,"% parent compound remaining, Average","[2]; pHHeps, 45 min, […]",63.2%
same,"% parent compound remaining, Average","[2]; pHHeps, 60 min, […]",53.4%
